Experimental data as given in the kinase profiling compilation of Christmann-Franck et al. (2016).

Experiments:
Experiment in all cases: KINOMEscan competition binding
Conditions in all cases: compound 0.5 µM
CSNK1G2 (human) = CSNK1G2 (human) (UniProt P78368)
CDK4 CCND3 (human) = CDK4 CCND3 (human) (UniProt P11802+P30281)
MARK4 (human) = MARK4 (human) (UniProt Q96L34)
NEK9 (human) = NEK9 (human) (UniProt Q8TD19)
NEK3 (human) = NEK3 (human) (UniProt P51956)
DDR1 (human) = DDR1 (human) (UniProt Q08345)
TLK2 (human) = TLK2 (human) (UniProt Q86UE8)
MAPK4 (human) = MAPK4 (human) (UniProt P31152)
SYK (human) = SYK (human) (UniProt P43405)
MELK (human) = MELK (human) (UniProt Q14680)
BMX (human) = BMX (human) (UniProt P51813)
CDK8 (human) = CDK8 (human) (UniProt P49336)
STK39 (human) = STK39 (human) (UniProt Q9UEW8)
RPS6KA5 KD2 (human) = RPS6KA5 KD2 (human) (UniProt O75582)
PRKG1 (human) = PRKG1 (human) (UniProt Q13976)
SRPK2 (human) = SRPK2 (human) (UniProt P78362)
NEK5 (human) = NEK5 (human) (UniProt Q6P3R8)
PLK2 (human) = PLK2 (human) (UniProt Q9NYY3)
PRKACB (human) = PRKACB (human) (UniProt P22694)
RPS6KA3 KD1 (human) = RPS6KA3 KD1 (human) (UniProt P51812)
RPS6KA4 KD2 (human) = RPS6KA4 KD2 (human) (UniProt O75676)
MAP4K5 (human) = MAP4K5 (human) (UniProt Q9Y4K4)
GRK4 (human) = GRK4 (human) (UniProt P32298)
IRAK1 (human) = IRAK1 (human) (UniProt P51617)
INSR (human) = INSR (human) (UniProt P06213)
FLT1 (human) = FLT1 (human) (UniProt P17948)
DYRK1A (human) = DYRK1A (human) (UniProt Q13627)
RIOK3 (human) = RIOK3 (human) (UniProt O14730)
SGK110 (human) = SGK110 (human) (UniProt P0C264)
HUNK (human) = HUNK (human) (UniProt P57058)
STK4 (human) = STK4 (human) (UniProt Q13043)
MINK1 (human) = MINK1 (human) (UniProt Q8N4C8)
CIT (human) = CIT (human) (UniProt O14578)
DCLK2 (human) = DCLK2 (human) (UniProt Q8N568)
MAP4K2 (human) = MAP4K2 (human) (UniProt Q12851)
CDC42BPA (human) = CDC42BPA (human) (UniProt Q5VT25)
MAP3K1 (human) = MAP3K1 (human) (UniProt Q13233)
STK35 (human) = STK35 (human) (UniProt Q8TDR2)
DYRK2 (human) = DYRK2 (human) (UniProt Q92630)
[1] = system: KIT (human), P10721 [V559D/T670I]
MAPK10 (human) = MAPK10 (human) (UniProt P53779)

Chain of RIOK3 (human) (O14730 whole entry, looked up): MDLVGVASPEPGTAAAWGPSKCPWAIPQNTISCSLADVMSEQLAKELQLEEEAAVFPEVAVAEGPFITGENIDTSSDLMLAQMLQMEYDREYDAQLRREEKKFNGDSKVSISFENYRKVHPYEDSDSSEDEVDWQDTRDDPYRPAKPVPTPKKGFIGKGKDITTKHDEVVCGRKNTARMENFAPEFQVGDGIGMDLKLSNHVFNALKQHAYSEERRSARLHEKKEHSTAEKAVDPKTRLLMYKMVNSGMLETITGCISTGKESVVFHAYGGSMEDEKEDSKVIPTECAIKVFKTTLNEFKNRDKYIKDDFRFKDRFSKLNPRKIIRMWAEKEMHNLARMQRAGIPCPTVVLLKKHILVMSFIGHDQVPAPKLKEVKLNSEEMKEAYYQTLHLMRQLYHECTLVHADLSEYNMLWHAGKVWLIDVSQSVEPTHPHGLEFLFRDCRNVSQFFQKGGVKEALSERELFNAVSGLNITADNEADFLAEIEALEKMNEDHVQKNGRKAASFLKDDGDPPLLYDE
Chain of IRAK1 (human) (P51617 whole entry, looked up): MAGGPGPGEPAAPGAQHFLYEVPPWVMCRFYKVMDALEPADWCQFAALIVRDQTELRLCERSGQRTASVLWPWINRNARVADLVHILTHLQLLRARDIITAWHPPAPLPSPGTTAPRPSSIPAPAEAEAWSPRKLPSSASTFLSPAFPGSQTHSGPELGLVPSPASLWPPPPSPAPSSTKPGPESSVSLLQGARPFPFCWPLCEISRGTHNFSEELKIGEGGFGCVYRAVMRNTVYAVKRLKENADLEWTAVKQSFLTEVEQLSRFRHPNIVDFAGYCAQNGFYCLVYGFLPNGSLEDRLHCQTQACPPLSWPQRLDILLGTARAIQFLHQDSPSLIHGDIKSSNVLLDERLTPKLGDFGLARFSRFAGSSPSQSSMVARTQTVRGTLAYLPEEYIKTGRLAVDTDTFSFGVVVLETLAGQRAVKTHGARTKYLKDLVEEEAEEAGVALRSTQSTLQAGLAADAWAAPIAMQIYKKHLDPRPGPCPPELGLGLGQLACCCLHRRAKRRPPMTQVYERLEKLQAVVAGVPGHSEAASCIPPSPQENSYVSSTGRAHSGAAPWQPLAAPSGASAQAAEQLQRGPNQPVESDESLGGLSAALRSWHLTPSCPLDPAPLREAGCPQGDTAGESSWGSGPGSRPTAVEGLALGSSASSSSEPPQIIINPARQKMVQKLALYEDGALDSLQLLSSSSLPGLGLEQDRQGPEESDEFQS
Chain of CDK8 (human) (P49336 whole entry, looked up): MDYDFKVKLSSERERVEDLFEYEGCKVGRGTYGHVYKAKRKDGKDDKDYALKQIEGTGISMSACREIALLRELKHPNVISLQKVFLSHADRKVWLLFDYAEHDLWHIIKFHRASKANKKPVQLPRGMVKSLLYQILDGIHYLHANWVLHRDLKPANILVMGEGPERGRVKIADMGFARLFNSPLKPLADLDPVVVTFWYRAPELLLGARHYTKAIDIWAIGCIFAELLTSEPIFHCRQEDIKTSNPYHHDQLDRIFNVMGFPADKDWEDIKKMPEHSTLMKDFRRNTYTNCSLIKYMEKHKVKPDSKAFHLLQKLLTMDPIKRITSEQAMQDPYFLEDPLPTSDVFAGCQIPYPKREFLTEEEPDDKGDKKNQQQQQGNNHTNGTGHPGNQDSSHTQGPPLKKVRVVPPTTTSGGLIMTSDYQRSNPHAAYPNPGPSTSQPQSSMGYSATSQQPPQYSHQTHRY
Chain of NEK5 (human) (Q6P3R8 whole entry, looked up): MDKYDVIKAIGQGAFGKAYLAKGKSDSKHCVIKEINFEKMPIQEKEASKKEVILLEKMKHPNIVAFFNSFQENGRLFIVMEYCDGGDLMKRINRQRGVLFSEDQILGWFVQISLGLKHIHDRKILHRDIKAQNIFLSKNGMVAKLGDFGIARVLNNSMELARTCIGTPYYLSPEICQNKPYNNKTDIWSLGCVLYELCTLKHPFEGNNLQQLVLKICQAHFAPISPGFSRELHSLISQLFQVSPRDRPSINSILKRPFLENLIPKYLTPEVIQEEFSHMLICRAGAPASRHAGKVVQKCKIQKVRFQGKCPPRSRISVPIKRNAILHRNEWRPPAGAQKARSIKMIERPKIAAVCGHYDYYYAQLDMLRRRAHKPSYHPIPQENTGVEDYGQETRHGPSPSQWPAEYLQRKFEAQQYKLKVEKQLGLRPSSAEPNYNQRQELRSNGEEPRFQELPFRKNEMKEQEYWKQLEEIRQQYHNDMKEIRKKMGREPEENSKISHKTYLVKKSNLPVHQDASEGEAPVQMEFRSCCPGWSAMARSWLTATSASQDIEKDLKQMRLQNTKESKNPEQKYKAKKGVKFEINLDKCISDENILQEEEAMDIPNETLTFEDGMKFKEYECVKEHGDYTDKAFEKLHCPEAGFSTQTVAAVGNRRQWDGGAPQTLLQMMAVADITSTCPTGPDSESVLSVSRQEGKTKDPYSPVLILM
Chain of CDC42BPA (human) (Q5VT25 whole entry, looked up): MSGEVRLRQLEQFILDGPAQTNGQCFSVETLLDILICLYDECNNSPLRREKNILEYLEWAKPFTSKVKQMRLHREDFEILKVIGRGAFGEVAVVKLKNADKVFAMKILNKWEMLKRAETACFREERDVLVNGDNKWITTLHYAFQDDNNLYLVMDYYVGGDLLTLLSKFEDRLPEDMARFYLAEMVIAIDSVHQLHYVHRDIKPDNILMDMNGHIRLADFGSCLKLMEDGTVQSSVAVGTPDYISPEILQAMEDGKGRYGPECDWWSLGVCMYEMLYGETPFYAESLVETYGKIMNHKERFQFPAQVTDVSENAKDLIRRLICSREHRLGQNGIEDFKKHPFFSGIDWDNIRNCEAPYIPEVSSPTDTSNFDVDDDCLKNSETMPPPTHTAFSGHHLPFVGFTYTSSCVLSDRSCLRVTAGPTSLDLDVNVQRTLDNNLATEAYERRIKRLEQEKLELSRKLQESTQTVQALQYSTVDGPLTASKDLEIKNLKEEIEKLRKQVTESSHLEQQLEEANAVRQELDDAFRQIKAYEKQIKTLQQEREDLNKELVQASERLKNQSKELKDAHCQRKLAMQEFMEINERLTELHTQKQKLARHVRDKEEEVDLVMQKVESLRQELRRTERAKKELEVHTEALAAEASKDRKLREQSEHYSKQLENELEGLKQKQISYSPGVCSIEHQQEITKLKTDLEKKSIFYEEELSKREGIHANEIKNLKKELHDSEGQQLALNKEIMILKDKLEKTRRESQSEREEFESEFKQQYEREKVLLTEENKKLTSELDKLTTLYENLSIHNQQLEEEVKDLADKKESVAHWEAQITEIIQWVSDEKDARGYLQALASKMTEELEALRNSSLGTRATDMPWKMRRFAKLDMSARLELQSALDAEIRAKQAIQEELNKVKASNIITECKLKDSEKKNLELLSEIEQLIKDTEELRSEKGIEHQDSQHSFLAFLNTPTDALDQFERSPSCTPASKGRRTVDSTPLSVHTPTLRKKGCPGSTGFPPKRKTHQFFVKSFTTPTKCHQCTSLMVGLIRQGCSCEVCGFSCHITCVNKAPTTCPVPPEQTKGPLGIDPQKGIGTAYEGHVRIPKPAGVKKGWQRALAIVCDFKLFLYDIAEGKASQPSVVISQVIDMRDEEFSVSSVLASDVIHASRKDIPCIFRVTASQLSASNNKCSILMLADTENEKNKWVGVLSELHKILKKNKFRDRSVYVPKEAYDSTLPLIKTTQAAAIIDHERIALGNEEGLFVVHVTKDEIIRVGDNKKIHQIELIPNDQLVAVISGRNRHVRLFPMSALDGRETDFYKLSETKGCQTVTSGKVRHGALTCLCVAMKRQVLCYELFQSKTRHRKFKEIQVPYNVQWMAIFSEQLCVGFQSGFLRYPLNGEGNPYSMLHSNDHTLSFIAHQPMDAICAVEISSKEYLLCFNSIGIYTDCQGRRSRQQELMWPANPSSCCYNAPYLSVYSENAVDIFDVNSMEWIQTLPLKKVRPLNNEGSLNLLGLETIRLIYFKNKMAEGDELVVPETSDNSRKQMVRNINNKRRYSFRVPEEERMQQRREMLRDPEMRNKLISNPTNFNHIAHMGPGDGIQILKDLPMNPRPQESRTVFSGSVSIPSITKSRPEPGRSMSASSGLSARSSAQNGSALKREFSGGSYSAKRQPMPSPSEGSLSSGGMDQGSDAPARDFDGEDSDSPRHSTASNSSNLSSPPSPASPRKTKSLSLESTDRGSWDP
Chain of DCLK2 (human) (Q8N568 whole entry, looked up): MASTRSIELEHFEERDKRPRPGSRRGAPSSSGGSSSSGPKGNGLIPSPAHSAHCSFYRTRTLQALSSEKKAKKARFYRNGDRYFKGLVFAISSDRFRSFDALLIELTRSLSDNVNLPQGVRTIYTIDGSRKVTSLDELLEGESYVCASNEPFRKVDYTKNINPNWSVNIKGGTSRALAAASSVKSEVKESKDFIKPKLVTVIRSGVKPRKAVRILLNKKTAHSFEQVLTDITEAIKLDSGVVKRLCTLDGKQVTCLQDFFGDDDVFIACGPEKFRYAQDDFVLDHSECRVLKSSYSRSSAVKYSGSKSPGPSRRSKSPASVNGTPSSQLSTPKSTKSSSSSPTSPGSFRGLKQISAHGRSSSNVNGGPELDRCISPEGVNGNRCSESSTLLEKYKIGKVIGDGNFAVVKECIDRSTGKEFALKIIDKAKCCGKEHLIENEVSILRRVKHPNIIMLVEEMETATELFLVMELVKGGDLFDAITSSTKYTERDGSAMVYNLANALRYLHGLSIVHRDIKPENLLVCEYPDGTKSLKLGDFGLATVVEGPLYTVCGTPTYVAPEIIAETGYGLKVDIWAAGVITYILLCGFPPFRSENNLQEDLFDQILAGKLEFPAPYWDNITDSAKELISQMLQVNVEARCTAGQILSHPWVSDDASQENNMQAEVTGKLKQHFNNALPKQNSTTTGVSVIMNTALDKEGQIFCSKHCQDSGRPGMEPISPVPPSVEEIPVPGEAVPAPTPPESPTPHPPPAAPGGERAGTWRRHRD

`Cn1c2ccccc2c2c3c(c4c5ccccc5n(CCC#N)c4c21)CNC3=O` gave a kinase still bound, per cent of control (CSNK1G2 (human)) of 94%, a kinase still bound, per cent of control (CDK4 CCND3 (human)) of 42% and a kinase still bound, per cent of control (MARK4 (human)) of 72%. It also gave a kinase still bound, per cent of control (NEK9 (human)) of 100%, a kinase still bound, per cent of control (NEK3 (human)) of 100% and a kinase still bound, per cent of control (DDR1 (human)) of 100%. It also gave a kinase still bound, per cent of control (TLK2 (human)) of 88%, a kinase still bound, per cent of control (MAPK4 (human)) of 100% and a kinase still bound, per cent of control (SYK (human)) of 2.4%. It also gave a kinase still bound, per cent of control (MELK (human)) of 22%, a kinase still bound, per cent of control (BMX (human)) of 66% and a kinase still bound, per cent of control (CDK8 (human)) of 85%. It also gave a kinase still bound, per cent of control (STK39 (human)) of 76%, a kinase still bound, per cent of control (RPS6KA5 KD2 (human)) of 71% and a kinase still bound, per cent of control (PRKG1 (human)) of 67%. The kinase still bound, per cent of control (SRPK2 (human)) was 9.2%, the kinase still bound, per cent of control (NEK5 (human)) was 100% and the kinase still bound, per cent of control (PLK2 (human)) was 100%. The kinase still bound, per cent of control (PRKACB (human)) was 67%, the kinase still bound, per cent of control (RPS6KA3 KD1 (human)) was 25% and the kinase still bound, per cent of control (RPS6KA4 KD2 (human)) was 100%. For the same compound, the kinase still bound, per cent of control (MAP4K5 (human)) was 7.8%, the kinase still bound, per cent of control (GRK4 (human)) was 3% and the kinase still bound, per cent of control (IRAK1 (human)) was 14%. It also gave a kinase still bound, per cent of control (INSR (human)) of 84%, a kinase still bound, per cent of control (FLT1 (human)) of 95% and a kinase still bound, per cent of control (DYRK1A (human)) of 6.4%. For the same compound, the kinase still bound, per cent of control (RIOK3 (human)) was 1.2%, the kinase still bound, per cent of control (SGK110 (human)) was 13% and the kinase still bound, per cent of control (HUNK (human)) was 87%. The kinase still bound, per cent of control (STK4 (human)) was 5.4%, the kinase still bound, per cent of control (MINK1 (human)) was 1% and the kinase still bound, per cent of control (CIT (human)) was 34%. For the same compound, the kinase still bound, per cent of control (DCLK2 (human)) was 100%, the kinase still bound, per cent of control (MAP4K2 (human)) was 1.1% and the kinase still bound, per cent of control (CDC42BPA (human)) was 94%. It also gave a kinase still bound, per cent of control (MAP3K1 (human)) of 100%, a kinase still bound, per cent of control (STK35 (human)) of 73% and a kinase still bound, per cent of control (DYRK2 (human)) of 37%. It also gave a kinase still bound, per cent of control [1] of 57% and a kinase still bound, per cent of control (MAPK10 (human)) of 20%.
